Reference: US10239843B2 (CANCER RESEARCH TECHNOLOGY LIMITED, priority 2014, dated 2019)
Read-outs that look alike come from different tables or passages of the source.

Assays:
Human Full Length PARG = Human Full Length PARG (Homo sapiens (Human), UniProt Q86W56); test: PARG enzyme assay (TR-FRET); type: biochemical; details: read-out: PARG Biochem IC50
PARG in HeLa cell line = test: PARG cell assay (PAR chain immunofluorescence after MMS); type: cell-based; details: HeLa cells, MMS treatment, read-out: PARG Cell IC50
Summary of the method: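 HeLa cells were dosed with compound for 1 h, then given MMS at 50 μg/mL final for a further hour. Cells were methanol-fixed, permeabilised and stained overnight at 4° C with anti-PAR monoclonal antibody. Retained nuclear PAR chains, detected by indirect immunofluorescence, indicate PARG inhibition.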

Human Full Length PARG, sequence (Q86W56 whole entry): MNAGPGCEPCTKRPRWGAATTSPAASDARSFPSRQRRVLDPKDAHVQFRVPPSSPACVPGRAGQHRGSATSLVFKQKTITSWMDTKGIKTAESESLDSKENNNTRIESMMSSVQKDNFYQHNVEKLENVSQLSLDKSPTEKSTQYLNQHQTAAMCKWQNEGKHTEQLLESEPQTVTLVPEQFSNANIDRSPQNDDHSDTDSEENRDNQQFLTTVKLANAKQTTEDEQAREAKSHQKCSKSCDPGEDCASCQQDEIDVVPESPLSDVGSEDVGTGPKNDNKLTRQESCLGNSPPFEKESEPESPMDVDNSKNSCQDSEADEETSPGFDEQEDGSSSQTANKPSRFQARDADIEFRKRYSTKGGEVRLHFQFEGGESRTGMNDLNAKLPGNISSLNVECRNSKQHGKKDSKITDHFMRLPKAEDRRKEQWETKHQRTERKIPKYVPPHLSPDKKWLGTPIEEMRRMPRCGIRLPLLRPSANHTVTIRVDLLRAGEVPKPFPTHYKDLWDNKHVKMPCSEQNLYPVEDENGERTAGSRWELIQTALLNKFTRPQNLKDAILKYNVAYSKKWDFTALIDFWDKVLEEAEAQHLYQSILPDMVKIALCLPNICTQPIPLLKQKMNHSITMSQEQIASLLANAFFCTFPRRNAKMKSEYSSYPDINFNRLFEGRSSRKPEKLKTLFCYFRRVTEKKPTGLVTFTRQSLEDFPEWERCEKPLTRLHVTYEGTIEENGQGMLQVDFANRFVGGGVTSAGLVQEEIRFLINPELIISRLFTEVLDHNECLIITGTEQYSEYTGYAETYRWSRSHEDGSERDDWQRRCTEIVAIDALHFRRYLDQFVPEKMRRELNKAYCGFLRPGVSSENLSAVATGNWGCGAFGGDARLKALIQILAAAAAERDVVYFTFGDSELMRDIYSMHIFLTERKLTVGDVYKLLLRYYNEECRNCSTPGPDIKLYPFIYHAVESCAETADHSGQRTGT

Structure (SMILES)	IC50 (Human Full Length PARG)	IC50 (PARG in HeLa cell line; Homo sapiens)	IC50 (PARG in HeLa cell line)
Cc1cc(Cn2c(=O)c3cc(S(=O)(=O)NC4(C)CC4)ccc3n(CCC(=O)N(C)C)c2=O)on1 [Example 406, N, N-Dimethyl-3-[6-[(1-methylcyclopropyl)sulfamoyl]-3-[(3-methylisoxazol-5-yl)methyl]-2,4-dioxo-quinazolin-1-yl]propanamide]	456 nM	800 nM	
Cc1cc(Cn2c(=O)c3cc(S(=O)(=O)NC4(C)CC4)ccc3n(CCCO)c2=O)on1 [Example 407, 1-(3-Hydroxypropyl)-N-(1-methylcyclopropyl)-3-[(3-methylisoxazol-5-yl)methyl]-2,4-dioxo-quinazoline-6-sulfonamide]	394 nM	625 nM	
Cn1cc(Cn2c(=O)c3cc(S(=O)(=O)NC4(CF)CC4)ccc3n(C)c2=O)cn1 [Example 408, N-[1-(Fluoromethyl)cyclopropyl]-1-methyl-3-[(1-methylpyrazol-4-yl)methyl]-2,4-dioxo-quinazoline-6-sulfonamide]	648 nM	287 nM	
Cn1cc(Cn2c(=O)c3cc(S(=O)(=O)NC4(C)CC4)ccc3n(CCF)c2=O)cn1 [Example 410, 1-(2-Fluoroethyl)-N-(1-methylcyclopropyl)-3-[(1-methylpyrazol-4-yl)methyl]-2,4-dioxo-quinazoline-6-sulfonamide]	263 nM	126 nM	
Cc1cc(Cn2c(=O)c3cc(S(=O)(=O)NC4(C)CC4)ccc3n(CCF)c2=O)on1 [Example 411, 1-(2-Fluoroethyl)-N-(1-methylcyclopropyl)-3-[(3-methylisoxazol-5-yl)methyl]-2,4-dioxo-quinazoline-6-sulfonamide]	409 nM	104 nM	
Cc1cc(Cn2c(=O)c3cc(S(=O)(=O)NC4(C)CC4)ccc3n(CC3CC(=O)C3)c2=O)on1 [Example 412, N-(1-Methylcyclopropyl)-3-[(3-methylisoxazol-5-yl)methyl]-2,4-dioxo-1-[(3-oxocyclobutyl)methyl]quinazoline-6-sulfonamide]	440 nM	289 nM	
COC(C)(C)Cn1c(=O)n(Cc2cc(C)no2)c(=O)c2cc(S(=O)(=O)NC3(C)CC3)ccc21 [Example 413, 1-(2-Methoxy-2-methyl-propyl)-N-(1-methylcyclopropyl)-3-[(3-methylisoxazol-5-yl)methyl]-2,4-dioxo-quinazoline-6-sulfonamide]	469 nM	305 nM	
Cc1cc(Cn2c(=O)c3cc(S(=O)(=O)NC4(C)CC4)ccc3n(CC(=O)N3CCC3)c2=O)on1 [Example 414, 1-[2-(Azetidin-1-yl)-2-oxo-ethyl]-N-(1-methylcyclopropyl)-3-[(3-methylisoxazol-5-yl)methyl]-2,4-dioxo-quinazoline-6-sulfonamide]	2080 nM		9220 nM
Cc1cc(Cn2c(=O)c3cc(S(=O)(=O)NC4(C)CC4)ccc3n(CC3CNC3)c2=O)on1 [Example 415, 1-(Azetidin-3-ylmethyl)-N-(1-methylcyclopropyl)-3-[(3-methylisoxazol-5-yl)methyl]-2,4-dioxo-quinazoline-6-sulfonamide]	609 nM	1440 nM	
Cn1cc(Cn2c(=O)[nH]c3ccc(S(=O)(=O)NC4(CF)CC4)cc3c2=O)cn1 [Example 416, N-[1-(Fluoromethyl)cyclopropyl]-3-[(1-methylpyrazol-4-yl)methyl]-2,4-dioxo-1H-quinazoline-6-sulfonamide]	430 nM		1320 nM
Cn1cc(Cn2c(=O)c3cc(S(=O)(=O)NC4(CF)CC4)ccc3n(CC3CC3)c2=O)cn1 [Example 417, 1-(Cyclopropylmethyl)-N-[1-(fluoromethyl)cyclopropyl]-3-[(1-methylpyrazol-4-yl)methyl]-2,4-dioxo-quinazoline-6-sulfonamide]	40 nM	42 nM	
Cc1cncc(Cn2c(=O)c3cc(S(=O)(=O)NC4(C)CC4)ccc3n(C)c2=O)c1 [Example 418, 1-Methyl-N-(1-methylcyclopropyl)-3-[(5-methyl-3-pyridyl)methyl]-2,4-dioxo-quinazoline-6-sulfonamide]	2270 nM	2110 nM	
Cn1cc(Cn2c(=O)c3cc(S(=O)(=O)NC4(CF)CC4)ccc3n(Cc3ccc(F)cc3)c2=O)cn1 [Example 419, N-[1-(Fluoromethyl)cyclopropyl]-1-[(4-fluorophenyl)methyl]-3-[(1-methylpyrazol-4-yl)methyl]-2,4-dioxo-quinazoline-6-sulfonamide]	106 nM	118 nM	
Cc1cc(Cn2c(=O)c3cc(S(=O)(=O)NC4(C)CC4)ccc3n(CC3(C#N)CC3)c2=O)on1 [Example 420, 1-[(1-Cyanocyclopropyl)methyl]-N-(1-methylcyclopropyl)-3-[(3-methylisoxazol-5-yl)methyl]-2,4-dioxo-quinazoline-6-sulfonamide]	140 nM	163 nM	
Cc1cc(Cn2c(=O)c3cc(S(=O)(=O)NC4(C)CC4)ccc3n(CC3CCC(=O)CC3)c2=O)on1 [Example 421, N-(1-Methylcyclopropyl)-3-[(3-methylisoxazol-5-yl)methyl]-2,4-dioxo-1-[(4-oxocyclohexyl)methyl]quinazoline-6-sulfonamide]	193 nM		589 nM
Cn1cc(Cn2c(=O)[nH]c3c(Br)cc(S(=O)(=O)NC4(C)CC4)cc3c2=O)cn1 [Example 422, 8-Bromo-N-(1-methylcyclopropyl)-3-[(1-methylpyrazol-4-yl)methyl]-2,4-dioxo-1H-quinazoline-6-sulfonamide]	512 nM	611 nM	
Cc1ccc(Cn2c(=O)c3cc(S(=O)(=O)NC4(C)CC4)ccc3n(C)c2=O)cn1 [Example 423, 1-Methyl-N-(1-methylcyclopropyl)-3-[(6-methyl-3-pyridyl)methyl]-2,4-dioxo-quinazoline-6-sulfonamide]	1600 nM	1350 nM	
Cn1cc(Cn2c(=O)[nH]c3c(C(N)=O)cc(S(=O)(=O)NC4(C)CC4)cc3c2=O)cn1 [Example 424, 6-[(1-Methylcyclopropyl)sulfamoyl]-3-[(1-methylpyrazol-4-yl)methyl]-2,4-dioxo-1H-quinazoline-8-carboxamide]	223 nM	13000 nM	
Cc1cc(Cn2c(=O)c3cc(S(=O)(=O)NC4(C)CC4)ccc3n(CC3CN(C=O)C3)c2=O)on1 [Example 425, 1-[(1-Formylazetidin-3-yl)methyl]-N-(1-methylcyclopropyl)-3-[(3-methylisoxazol-5-yl)methyl]-2,4-dioxo-quinazoline-6-sulfonamide]	214 nM	7810 nM	
C#CC1(NS(=O)(=O)c2ccc3c(c2)c(=O)n(Cc2cnn(C)c2)c(=O)n3C)CC1 [Example 427, N-(1-Ethynylcyclopropyl)-1-methyl-3-[(1-methylpyrazol-4-yl)methyl]-2,4-dioxo-quinazoline-6-sulfonamide]	5400 nM	1260 nM	
CC(=O)NCc1cc(S(=O)(=O)NC2(C)CC2)cc2c(=O)n(Cc3cnn(C)c3)c(=O)[nH]c12 [Example 428, N-[[6-[(1-Methylcyclopropyl)sulfamoyl]-3-[(1-methylpyrazol-4-yl)methyl]-2,4-dioxo-1H-quinazolin-8-yl]methyl]acetamide]	494 nM	27000 nM	
CN(C)CC#Cc1cc(S(=O)(=O)NC2(C)CC2)cc2c(=O)n(Cc3cnn(C)c3)c(=O)[nH]c12 [Example 429, 8-[3-(Dimethylamino)prop-1-ynyl]-N-(1-methylcyclopropyl)-3-[(1-methylpyrazol-4-yl)methyl]-2,4-dioxo-1H-quinazoline-6-sulfonamide]	1770 nM	1520 nM	
C#CC1(NS(=O)(=O)c2ccc3[nH]c(=O)n(Cc4cnn(C)c4)c(=O)c3c2)CC1 [Example 431, N-(1-Ethynylcyclopropyl)-3-[(1-methylpyrazol-4-yl)methyl]-2,4-dioxo-1H-quinazoline-6-sulfonamide]	3720 nM		3030 nM
C#CC1(NS(=O)(=O)c2ccc3c(c2)c(=O)n(Cc2cnn(C)c2)c(=O)n3CC2CC2)CC1 [Example 432, 1-(Cyclopropylmethyl)-N-(1-ethynylcyclopropyl)-3-[(1-methylpyrazol-4-yl)methyl]-2,4-dioxo-quinazoline-6-sulfonamide]	486 nM		261 nM
Cc1ncc(Cn2c(=O)c3cc(S(=O)(=O)NC4(C)CC4)ccc3n(C)c2=O)cn1 [Example 433, 1-Methyl-N-(1-methylcyclopropyl)-3-[(2-methylpyrimidin-5-yl)methyl]-2,4-dioxo-quinazoline-6-sulfonamide]	3340 nM	1130 nM	
Cn1c(=O)n(Cc2cnn3ccccc23)c(=O)c2cc(S(=O)(=O)NC3(C)CC3)ccc21 [Example 434, 1-Methyl-N-(1-methylcyclopropyl)-2,4-dioxo-3-(pyrazolo[1,5-a]pyridin-3-ylmethyl)quinazoline-6-sulfonamide]	5910 nM	609 nM	
Cn1cc(Cn2c(=O)c3cc(S(=O)(=O)NC4(C)CC4)ccc3n(CC3CC3(F)F)c2=O)cn1 (stereo not shown) [Example 435, 1-[(2,2-Difluorocyclopropyl)methyl]-N-(1-methylcyclopropyl)-3-[(1-methylpyrazol-4-yl)methyl]-2,4-dioxo-quinazoline-6-sulfonamide]	104 nM	46 nM	
Cn1cc(Cn2c(=O)c3cc(S(=O)(=O)NC4(C)CC4)ccc3n(CC3CC(F)(F)C3)c2=O)cn1 [Example 436, 1-[(3,3-Difluorocyclobutyl)methyl]-N-(1-methylcyclopropyl)-3-[(1-methylpyrazol-4-yl)methyl]-2,4-dioxo-quinazoline-6-sulfonamide]	118 nM	70 nM	
Cc1cc(Cn2c(=O)n(Cc3cnn(C)c3)c(=O)c3cc(S(=O)(=O)NC4(CF)CC4)ccc32)n(C)n1 [Example 437, 1-[(2,5-Dimethylpyrazol-3-yl)methyl]-N-[1-(fluoromethyl)cyclopropyl]-3-[(1-methylpyrazol-4-yl)methyl]-2,4-dioxo-quinazoline-6-sulfonamide]	23 nM	165 nM	
